Where two headings read alike, the source gives them in different places.
System: NL-RLuc virus (recombinant HIV NL4-3 proviral clone with Renilla Luciferase) in MT-2 cells
Assay: Inhibition of HIV Replication (NL-RLuc luciferase reporter virus, MT-2 cells)
Format: cell-based
Details: MT2, 120 h
Description: Inhibition of HIV Replication:
A recombinant NL-RLuc proviral clone was constructed in which a section of the nef gene from NL4-3 was replaced with the Renilla Luciferase gene. This virus is fully infectious and can undergo multiple cycles of replication in cell culture. In addition, the luciferous reporter provides a simple and easy method for quantitating the extent of virus growth and consequently, the antiviral activity of test compounds. The plasmid pNLRLuc contains the proviral NL-Rluc DNA cloned into pUC 18 at the PvuII site. The NL-RLuc virus was prepared by transfection of 293T cells with the plasmid pNLRLuc. Transfections were performed using the LipofectAMINE PLUS kit from Invitrogen (Carlsbad, Calif.) according to the manufacturer and the virus generated was titered in MT-2 cells. For susceptibility analyses, the titrated virus was used to infect MT-2 cells in the presence of compound, and after 5 days of incubation, cells were processed and quantitated for virus growth by the amount of expressed luciferase. Assay media was RPMI 1640 supplemented with 10% heat inactivated fetal bovine serum (FBS), 100 units/ml penicillin G/100 units/ml streptomycin, 10 mM HEPES buffer pH 7.55 and 2 mM L-glutamine. The results from at least 2 experiments were used to calculate the EC50 values. Luciferase was quantitated using the Dual Luciferase kit from Promega (Madison, Wis.). Susceptibility of viruses to compounds was determined by incubation in the presence of serial dilutions of the compound. The 50% effective concentration (EC50) was calculated by using the exponential form of the median effect equation where (Fa)=1/[1+(ED50/drug conc.)^m](Johnson V A, Byington R T. Infectivity Assay. In Techniques in HIV Research. ed. Aldovini A, Walker B D. 71-76. New York: Stockton Press. 1990). Activity equal to A refers to a compound having an EC50≤100 nM, while B and C denote compounds having an EC50 between 100 nM and 1 uM (B) or >1 uM (C).

| Compound | EC50 (read-out: Activity) [µM] | EC50 (read-out: EC50 μM) [µM] |
| --- | --- | --- |
| Cc1nc(C)c([C@H](OC(C)(C)C)C(=O)O)c(N2CCC(C)(C)CC2)c1-c1ccc(CN(Cc2ccc(F)cc2)C(=O)N2CCCC2)cc1 [Example 35, (S)-2-(tert-butoxy)-2-(4-(4,4-dimethylpiperidin-1-yl)-5-(4-((N-(4-fluorobenzyl)pyrrolidine-1-carboxamido)methyl)phenyl)-2,6-dimethylpyridin-3-yl)acetic acid] | < 0.1 |  |
| Cc1cc(CNCc2ccc(-c3c(C)nc(C)c([C@H](OC(C)(C)C)C(=O)O)c3N3CCC(C)(C)CC3)cc2)ccc1F [Example 1, (S)-2-(tert-Butoxy)-2-(4-(4,4-dimethylpiperidin-1-yl)-5-(4-(((4-fluoro-3-methylbenzyl)amino)methyl)phenyl)-2,6-dimethylpyridin-3-yl)acetic acid] | < 0.1 | 0.013 |
| Cc1nc(C)c([C@H](OC(C)(C)C)C(=O)O)c(N2CCC(C)(C)CC2)c1-c1ccc(CN(Cc2ccc(F)cc2)CC2CCCO2)cc1 (stereo partly drawn) [Example 3, (2S)-2-(tert-Butoxy)-2-(4-(4,4-dimethylpiperidin-1-yl)-5-(4-(((4-fluorobenzyl) ((tetrahydrofuran-2-yl)methyl)amino)methyl)phenyl)-2,6-dimethylpyridin-3-yl)acetic acid] | < 0.1 |  |
| Cc1nc(C)c([C@H](OC(C)(C)C)C(=O)O)c(N2CCC(C)(C)CC2)c1-c1ccc(CN2CCOCC2)cc1 [Example 2, (S)-2-(tert-Butoxy)-2-(4-(4,4-dimethylpiperidin-1-yl)-2,6-dimethyl-5-(4-(morpholinomethyl)phenyl)pyridin-3-yl)acetic acid] | 0.1 to 1 | 0.113 |
| Cc1nc(C)c([C@H](OC(C)(C)C)C(=O)O)c(N2CCC(C)(C)CC2)c1-c1ccc(CSCc2ccc(F)cc2)cc1 [Example 52, (S)-2-(tert-Butoxy)-2-(4-(4,4-dimethylpiperidin-1-yl)-5-(4-(((4-fluorobenzyl)thio)methyl)phenyl)-2,6-dimethylpyridin-3-yl)acetic acid] | < 0.1 |  |
| Cc1nc(C)c([C@H](OC(C)(C)C)C(=O)O)c(N2CCC(C)(C)CC2)c1-c1ccc(CNCc2ccc(Cl)c(Cl)c2)cc1 [Example 12, (S)-2-(tert-butoxy)-2-(5-(4-(((3,4-dichlorobenzyl)amino)methyl)phenyl)-4-(4,4-dimethylpiperidin-1-yl)-2,6-dimethylpyridin-3-yl)acetic acid] | < 0.1 |  |
| Cc1nc(C)c([C@H](OC(C)(C)C)C(=O)O)c(N2CCC(C)(C)CC2)c1-c1ccc(COc2cccc(C(F)(F)F)c2)cc1 [Example 48, (S)-2-(tert-Butoxy)-2-(4-(4,4-dimethylpiperidin-1-yl)-2,6-dimethyl-5-(4-((3-(trifluoromethyl)phenoxy)methyl)phenyl)pyridin-3-yl)acetic acid] | < 0.1 |  |
| CCOC(=O)N(Cc1ccc(F)cc1)Cc1ccc(-c2c(C)nc(C)c([C@H](OC(C)(C)C)C(=O)O)c2N2CCC(C)(C)CC2)cc1 [Example 33, (S)-2-(tert-butoxy)-2-(4-(4,4-dimethylpiperidin-1-yl)-5-(4-(((ethoxycarbonyl)(4 fluorobenzyl)amino)methyl)phenyl)-2,6-dimethylpyridin-3-yl)acetic acid] | < 0.1 |  |
| Cc1nc(C)c([C@H](OC(C)(C)C)C(=O)O)c(N2CCC(C)(C)CC2)c1-c1ccc(CN(Cc2ccc(F)cc2)C(=O)c2cccs2)cc1 [Example 44, (S)-2-(tert-butoxy)-2-(4-(4,4-dimethylpiperidin-1-yl)-5-(4-((N-(4-fluorobenzyl)thiophene-2-carboxamido)methyl)phenyl)-2,6-dimethylpyridin-3-yl)acetic acid] | < 0.1 |  |
| Cc1nc(C)c([C@H](OC(C)(C)C)C(=O)O)c(N2CCC(C)(C)CC2)c1-c1ccc(CN(Cc2ccc(F)cc2)S(=O)(=O)c2ccccc2)cc1 [Example 36, (S)-2-(tert-butoxy)-2-(4-(4,4-dimethylpiperidin-1-yl)-5-(4-((N-(4-fluorobenzyl)phenylsulfonamido)methyl)phenyl)-2,6-dimethylpyridin-3-yl)acetic acid] | < 0.1 |  |
| CCC(=O)N(Cc1ccc(F)cc1)Cc1ccc(-c2c(C)nc(C)c([C@H](OC(C)(C)C)C(=O)O)c2N2CCC(C)(C)CC2)cc1 [Example 22, (S)-2-(tert-butoxy)-2-(4-(4,4-dimethylpiperidin-1-yl)-5-(4-((N-(4-fluorobenzyl)propionamido)methyl)phenyl)-2,6-dimethylpyridin-3-yl)acetic acid] | < 0.1 |  |
| Cc1nc(C)c([C@H](OC(C)(C)C)C(=O)O)c(N2CCC(C)(C)CC2)c1-c1ccc(CN(Cc2ccc(F)cc2)S(C)(=O)=O)cc1 [Example 34, (S)-2-(tert-butoxy)-2-(4-(4,4-dimethylpiperidin-1-yl)-5-(4-((N-(4-fluorobenzyl)methylsulfonamido)methyl)phenyl)-2,6-dimethylpyridin-3-yl)acetic acid] | < 0.1 |  |
| Cc1nc(C)c([C@H](OC(C)(C)C)C(=O)O)c(N2CCC(C)(C)CC2)c1-c1ccc(CN(C)CCc2ccc(F)cc2)cc1 [Example 5, (S)-2-(tert-butoxy)-2-(4-(4,4-dimethylpiperidin-1-yl)-5-(4-(((4-fluorophenethyl)(methyl)amino)methyl)phenyl)-2,6-dimethylpyridin-3-yl)acetic acid] | < 0.1 |  |
| Cc1nc(C)c([C@H](OC(C)(C)C)C(=O)O)c(N2CCC(C)(C)CC2)c1-c1ccc(CN(Cc2ccc(F)cc2)C(=O)c2cccc(F)c2)cc1 [Example 41, (S)-2-(tert-butoxy)-2-(4-(4,4-dimethylpiperidin-1-yl)-5-(4-((3-fluoro-N-(4-fluorobenzyl)benzamido)methyl)phenyl)-2,6-dimethylpyridin-3-yl)acetic acid] | < 0.1 | 0.015 |
| Cc1nc(C)c([C@H](OC(C)(C)C)C(=O)O)c(N2CCC(C)(C)CC2)c1-c1ccc(CNCCc2ccc(F)cc2)cc1 [Example 11, (S)-2-(tert-butoxy)-2-(4-(4,4-dimethylpiperidin-1-yl)-5-(4-(((4-fluorophenethyl)amino)methyl)phenyl)-2,6-dimethylpyridin-3-yl)acetic acid] | < 0.1 |  |
| COc1ccccc1C(=O)N(Cc1ccc(F)cc1)Cc1ccc(-c2c(C)nc(C)c([C@H](OC(C)(C)C)C(=O)O)c2N2CCC(C)(C)CC2)cc1 [Example 26, (S)-2-(tert-butoxy)-2-(4-(4,4-dimethylpiperidin-1-yl)-5-(4-((N-(4-fluorobenzyl)-2-methoxybenzamido)methyl)phenyl)-2,6-dimethylpyridin-3-yl)acetic acid] | < 0.1 |  |
| COc1ccc(C(=O)N(Cc2ccc(F)cc2)Cc2ccc(-c3c(C)nc(C)c([C@H](OC(C)(C)C)C(=O)O)c3N3CCC(C)(C)CC3)cc2)cc1 [Example 45, (S)-2-(tert-butoxy)-2-(4-(4,4-dimethylpiperidin-1-yl)-5-(4-((N-(4-fluorobenzyl)-4-methoxybenzamido)methyl)phenyl)-2,6-dimethylpyridin-3-yl)acetic acid] | < 0.1 |  |
| Cc1nc(C)c([C@H](OC(C)(C)C)C(=O)O)c(N2CCC(C)(C)CC2)c1-c1ccc(CN(Cc2ccc(F)cc2)C(=O)c2cccc(C(F)(F)F)c2)cc1 [Example 38, (S)-2-(tert-butoxy)-2-(4-(4,4-dimethylpiperidin-1-yl)-5-(4-((N-(4-fluorobenzyl)-3-(trifluoromethyl)benzamio)methyl)phenyl)-2,6-dimethylpyridin-3-yl)acetic acid] | < 0.1 |  |
| Cc1nc(C)c([C@H](OC(C)(C)C)C(=O)O)c(N2CCC(C)(C)CC2)c1-c1ccc(CN(Cc2ccc(F)cc2)C(=O)c2ccccc2C(F)(F)F)cc1 [Example 39, (S)-2-(tert-butoxy)-2-(4-(4,4-dimethylpiperidin-1-yl)-5-(4-((N-(4-fluorobenzyl)-2-(trifluoromethyl)benzamido)methyl)phenyl)-2,6-dimethylpyridin-3-yl)acetic acid] | < 0.1 |  |
| Cc1nc(C)c([C@H](OC(C)(C)C)C(=O)O)c(N2CCC(C)(C)CC2)c1-c1ccc(CN(Cc2ccc(F)cc2)C(=O)c2ccccc2)cc1 [Example 21, (S)-2-(tert-butoxy)-2-(4-(4,4-dimethylpiperidin-1-yl)-5-(4-((N-(4-fluorobenzyl)benamido)methyl)phenyl)-2,6-dimethylpyridin-3-yl)acetic acid] | < 0.1 |  |
| CC(=O)N(Cc1ccc(F)cc1)Cc1ccc(-c2c(C)nc(C)c([C@H](OC(C)(C)C)C(=O)O)c2N2CCC(C)(C)CC2)cc1 [Example 24, (S)-2-(tert-butoxy)-2-(4-(4,4-dimethylpiperidin-1-yl)-5-(4-((N-(4-fluorobenzyl)acetamido)methyl)phenyl)-2,6-dimethylpyridin-3-yl)acetic acid] | < 0.1 |  |
| COc1ccccc1CCNCc1ccc(-c2c(C)nc(C)c([C@H](OC(C)(C)C)C(=O)O)c2N2CCC(C)(C)CC2)cc1 [Example 9, (S)-2-(tert-butoxy)-2-(4-(4,4-dimethylpiperidin-1-yl)-5-(4-(((2-methoxyphenethyl)amino)methyl)phenyl)-2,6-dimethylpyridin-3-yl)acetic acid] | < 0.1 |  |
